From US20260027116A1, “Methods of Treating Chronic Graft-Versus-Host Disease Following Allogeneic Hematopoietic Stem Cell Transplantation” (Kadmon Corporation, LLC, priority 2022, published 2026)

Tested on: lung function
Assay: Example 1: percent predicted TLC change from baseline
Assay type: in vivo, human
Details: mean (SD)
Description: Change From Baseline in Percent Predicted Total Lung Capacity (TLC) at Each Specified Time Points. TLC is the volume of air in the lungs upon the maximum effort of inspiration. Baseline value was defined as valid and last non-missing value obtained within 28 days prior to participant receiving first study medication. EOT visit was performed within 3 days after the participant's last dose of study drug. […] Analysis was performed on mITT population. Here, ‘number analyzed’=participants with available data for each specified category. Here, ‘0’ in the number analyzed field signifies that none of the participants were available for the analysis at the specified time points.

CC(C)NC(=O)COc1cccc(-c2nc(Nc3ccc4[nH]ncc4c3)c3ccccc3n2)c1 [Belumosudil, 2-{3-[4-(1H-indazol-5-ylamino)-2-quinazolinyl]phenoxy}-N-(propan-2-yl) acetamide]
Change From Baseline in Percent Predicted Total Lung Capacity (TLC) (Cohort 1: 200 mg QD, Cycle 3, Day 1): 1.6 (11.9) Percent Predicted TLC | Change From Baseline in Percent Predicted Total Lung Capacity (TLC) (Cohort 1: 200 mg QD, Cycle 5, Day 1): −2.6 (16.8) Percent Predicted TLC | Change From Baseline in Percent Predicted Total Lung Capacity (TLC) (Cohort 1: 200 mg QD, Cycle 7, Day 1): −3.7 (6.6) Percent Predicted TLC | Change From Baseline in Percent Predicted Total Lung Capacity (TLC) (Cohort 1: 200 mg QD, Cycle 9, Day 1): −2.9 (6.1) Percent Predicted TLC | Change From Baseline in Percent Predicted Total Lung Capacity (TLC) (Cohort 1: 200 mg QD, Cycle 11, Day 1): 0.7 (4.3) Percent Predicted TLC | Change From Baseline in Percent Predicted Total Lung Capacity (TLC) (Cohort 1: 200 mg QD, Cycle 12, Day 1): −9.0 (—) Percent Predicted TLC | Change From Baseline in Percent Predicted Total Lung Capacity (TLC) (Cohort 1: 200 mg QD, Cycle 13, Day 1): −0.3 (7.1) Percent Predicted TLC | Change From Baseline in Percent Predicted Total Lung Capacity (TLC) (Cohort 1: 200 mg QD, Cycle 14, Day 1): 23.0 (—) Percent Predicted TLC | Change From Baseline in Percent Predicted Total Lung Capacity (TLC) (Cohort 1: 200 mg QD, Cycle 15, Day 1): −2.8 (10.8) Percent Predicted TLC | Change From Baseline in Percent Predicted Total Lung Capacity (TLC) (Cohort 1: 200 mg QD, Cycle 16, Day 1): −3.0 (—) Percent Predicted TLC | Change From Baseline in Percent Predicted Total Lung Capacity (TLC) (Cohort 1: 200 mg QD, Cycle 17, Day 1): −3.0 (6.2) Percent Predicted TLC | Change From Baseline in Percent Predicted Total Lung Capacity (TLC) (Cohort 1: 200 mg QD, Cycle 19, Day 1): −4.6 (6.1) Percent Predicted TLC | Change From Baseline in Percent Predicted Total Lung Capacity (TLC) (Cohort 1: 200 mg QD, Cycle 21, Day 1): 0.3 (9.3) Percent Predicted TLC | Change From Baseline in Percent Predicted Total Lung Capacity (TLC) (Cohort 1: 200 mg QD, Cycle 23, Day 1): 0.0 (8.7) Percent Predicted TLC | Change From Baseline in Percent Predicted Total Lung Capacity (TLC) (Cohort 1: 200 mg QD, Cycle 24, Day 1): 0.0 (—) Percent Predicted TLC | Change From Baseline in Percent Predicted Total Lung Capacity (TLC) (Cohort 1: 200 mg QD, Cycle 25, Day 1): −3.0 (7.1) Percent Predicted TLC | Change From Baseline in Percent Predicted Total Lung Capacity (TLC) (Cohort 1: 200 mg QD, Cycle 26, Day 1): 0.0 (—) Percent Predicted TLC | Change From Baseline in Percent Predicted Total Lung Capacity (TLC) (Cohort 1: 200 mg QD, Cycle 27, Day 1): 5.5 (16.3) Percent Predicted TLC | Change From Baseline in Percent Predicted Total Lung Capacity (TLC) (Cohort 1: 200 mg QD, Cycle 29, Day 1): −1.0 (17.0) Percent Predicted TLC | Change From Baseline in Percent Predicted Total Lung Capacity (TLC) (Cohort 1: 200 mg QD, Cycle 30, Day 1): 7.0 (—) Percent Predicted TLC | Change From Baseline in Percent Predicted Total Lung Capacity (TLC) (Cohort 1: 200 mg QD, Cycle 31, Day 1): 7.5 (17.7) Percent Predicted TLC | Change From Baseline in Percent Predicted Total Lung Capacity (TLC) (Cohort 1: 200 mg QD, Cycle 32, Day 1): 1.0 (—) Percent Predicted TLC | Change From Baseline in Percent Predicted Total Lung Capacity (TLC) (Cohort 1: 200 mg QD, Cycle 33, Day 1): 14.0 (11.3) Percent Predicted TLC | Change From Baseline in Percent Predicted Total Lung Capacity (TLC) (Cohort 1: 200 mg QD, Cycle 34, Day 1): 2.0 (—) Percent Predicted TLC | Change From Baseline in Percent Predicted Total Lung Capacity (TLC) (Cohort 1: 200 mg QD, Cycle 35, Day 1): 10.5 (7.8) Percent Predicted TLC | Change From Baseline in Percent Predicted Total Lung Capacity (TLC) (Cohort 1: 200 mg QD, Cycle 36, Day 1): 6.0 (—) Percent Predicted TLC | Change From Baseline in Percent Predicted Total Lung Capacity (TLC) (Cohort 1: 200 mg QD, Cycle 48, Day 1): −13.0 (—) Percent Predicted TLC | Change From Baseline in Percent Predicted Total Lung Capacity (TLC) (Cohort 1: 200 mg QD, Cycle 49, Day 1): 5.0 (—) Percent Predicted TLC | Change From Baseline in Percent Predicted Total Lung Capacity (TLC) (Cohort 1: 200 mg QD, Cycle 51, Day 1): 15.0 (—) Percent Predicted TLC | Change From Baseline in Percent Predicted Total Lung Capacity (TLC) (Cohort 1: 200 mg QD, Cycle 52, Day 1): 1.0 (—) Percent Predicted TLC | Change From Baseline in Percent Predicted Total Lung Capacity (TLC) (Cohort 1: 200 mg QD, Cycle 53, Day 1): 15.0 (—) Percent Predicted TLC | Change From Baseline in Percent Predicted Total Lung Capacity (TLC) (Cohort 1: 200 mg QD, Cycle 54, Day 1): 4.0 (—) Percent Predicted TLC | Change From Baseline in Percent Predicted Total Lung Capacity (TLC) (Cohort 1: 200 mg QD, Cycle 55, Day 1): 29.0 (—) Percent Predicted TLC | Change From Baseline in Percent Predicted Total Lung Capacity (TLC) (Cohort 1: 200 mg QD, Cycle 56, Day 1): 9.0 (—) Percent Predicted TLC | Change From Baseline in Percent Predicted Total Lung Capacity (TLC) (Cohort 1: 200 mg QD, Cycle 57, Day 1): 18.0 (—) Percent Predicted TLC | Change From Baseline in Percent Predicted Total Lung Capacity (TLC) (Cohort 1: 200 mg QD, Cycle 58, Day 1): 5.0 (—) Percent Predicted TLC | Change From Baseline in Percent Predicted Total Lung Capacity (TLC) (Cohort 1: 200 mg QD, Cycle 60, Day 1): −3.0 (—) Percent Predicted TLC | Change From Baseline in Percent Predicted Total Lung Capacity (TLC) (Cohort 1: 200 mg QD, Cycle 61, Day 1): 5.0 (—) Percent Predicted TLC | Change From Baseline in Percent Predicted Total Lung Capacity (TLC) (Cohort 1: 200 mg QD, Cycle 62, Day 1): −1.0 (—) Percent Predicted TLC | Change From Baseline in Percent Predicted Total Lung Capacity (TLC) (Cohort 1: 200 mg QD, Cycle 63, Day 1): 12.0 (—) Percent Predicted TLC | Change From Baseline in Percent Predicted Total Lung Capacity (TLC) (Cohort 1: 200 mg QD, Cycle 67, Day 1): 12.0 (—) Percent Predicted TLC | Change From Baseline in Percent Predicted Total Lung Capacity (TLC) (Cohort 1: 200 mg QD, EOT): 5.2 (27.5) Percent Predicted TLC | Change From Baseline in Percent Predicted Total Lung Capacity (TLC) (Cohort 2: 200 mg BID, Cycle 3, Day 1): 1.9 (8.5) Percent Predicted TLC | Change From Baseline in Percent Predicted Total Lung Capacity (TLC) (Cohort 2: 200 mg BID, Cycle 5, Day 1): −7.2 (10.5) Percent Predicted TLC | Change From Baseline in Percent Predicted Total Lung Capacity (TLC) (Cohort 2: 200 mg BID, Cycle 7, Day 1): −4.4 (6.3) Percent Predicted TLC | Change From Baseline in Percent Predicted Total Lung Capacity (TLC) (Cohort 2: 200 mg BID, Cycle 8, Day 1): −5.0 (—) Percent Predicted TLC | Change From Baseline in Percent Predicted Total Lung Capacity (TLC) (Cohort 2: 200 mg BID, Cycle 9, Day 1): −6.0 (8.5) Percent Predicted TLC | Change From Baseline in Percent Predicted Total Lung Capacity (TLC) (Cohort 2: 200 mg BID, Cycle 10, Day 1): −18.5 (6.4) Percent Predicted TLC | Change From Baseline in Percent Predicted Total Lung Capacity (TLC) (Cohort 2: 200 mg BID, Cycle 11, Day 1): −5.2 (11.2) Percent Predicted TLC | Change From Baseline in Percent Predicted Total Lung Capacity (TLC) (Cohort 2: 200 mg BID, Cycle 12, Day 1): 0.0 (—) Percent Predicted TLC
